{"source": "the supplement of paper PMC9701192", "assay_in_all_cases": "mass response relative to vehicle control (EMD distance of treated vs reference mass distribution minus control baseline) (% of mean reference cell mass); higher = larger drug-induced change in single-cell mass distribution (stronger response)", "key": {"A549": {"tested_on": "A549", "procedure": "(§1)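 Cancer cell lines were treated in vitro with drugs at the listed doses (about 24 h; 0.25% DMSO vehicle). Single-cell buoyant mass was measured on suspended microchannel resonator instruments with CNN image curation, 2500 cells per condition. Mass response is the Earth Mover's Distance to vehicle-treated reference cells as % of mean reference mass.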"}, "PA-TU-8902": {"tested_on": "PA-TU-8902", "procedure": "as §1"}, "HT-29": {"tested_on": "HT-29", "procedure": "as §1"}, "H929": {"tested_on": "H929", "procedure": "as §1"}, "MV-4-11": {"tested_on": "MV-4-11", "procedure": "as §1"}, "H2228": {"tested_on": "H2228", "procedure": "as §1"}, "KMS-12-PE": {"tested_on": "KMS-12-PE", "procedure": "as §1"}, "H1666": {"tested_on": "H1666", "procedure": "as §1"}}, "note": "± gives the uncertainty stated by the source.", "data": [{"smiles": "CCc1cc2c(cc1N1CCC(N3CCOCC3)CC1)C(C)(C)c1[nH]c3cc(C#N)ccc3c1C2=O", "note": "[Alectinib]", "values": [{"measurement": "mass response", "setting": "A549; 0.1 µM", "result": 3.04}, {"measurement": "mass response", "setting": "A549; 0.5 µM", "result": 0.678}, {"measurement": "mass response", "setting": "A549; 1 µM", "result": 3.27}, {"measurement": "mass response", "setting": "A549; 10 µM", "result": 24.8}]}, {"smiles": "CO[C@H]1C[C@@H]2CC[C@@H](C)[C@@](O)(O2)C(=O)C(=O)N2CCCC[C@H]2C(=O)O[C@H]([C@H](C)C[C@@H]2CC[C@@H](OCCO)[C@H](OC)C2)CC(=O)[C@H](C)/C=C(\\C)[C@@H](O)[C@@H](OC)C(=O)[C@H](C)C[C@H](C)/C=C/C=C/C=C/1C", "note": "[Everolimus]", "values": [{"measurement": "mass response", "setting": "PA-TU-8902; 0.5 µM", "result": "8.53 ± 1.9"}, {"measurement": "mass response", "setting": "PA-TU-8902; 5 µM", "result": "9.89 ± 5.3"}, {"measurement": "mass response", "setting": "PA-TU-8902; 20 µM", "result": "8.18 ± 4"}, {"measurement": "mass response", "setting": "PA-TU-8902; 50 µM", "result": "16.6 ± 7"}]}, {"smiles": "CCCS(=O)(=O)Nc1ccc(F)c(C(=O)c2c[nH]c3ncc(-c4ccc(Cl)cc4)cc23)c1F", "note": "[Vemurafenib]", "values": [{"measurement": "mass response", "setting": "HT-29; 0.01 µM", "result": "-0.111 ± 1.9"}, {"measurement": "mass response", "setting": "HT-29; 0.1 µM", "result": "2.67 ± 0.19"}, {"measurement": "mass response", "setting": "HT-29; 1 µM", "result": "16.5 ± 2.6"}, {"measurement": "mass response", "setting": "HT-29; 10 µM", "result": "24.3 ± 2.1"}]}, {"smiles": "CC(C)C[C@H](NC(=O)[C@H](Cc1ccccc1)NC(=O)c1cnccn1)B(O)O", "note": "[Bortezomib]", "values": [{"measurement": "mass response", "setting": "H929; 0.001 µM", "result": "-0.979 ± 1.1"}, {"measurement": "mass response", "setting": "H929; 0.005 µM", "result": "24.1 ± 2.9"}, {"measurement": "mass response", "setting": "H929; 0.025 µM", "result": "34.2 ± 4.2"}, {"measurement": "mass response", "setting": "H929; 0.05 µM", "result": "33.7 ± 4.1"}]}, {"smiles": "Nc1ccn([C@@H]2O[C@H](CO)[C@@H](O)[C@@H]2O)c(=O)n1", "note": "[Cytarabine]", "values": [{"measurement": "mass response", "setting": "MV-4-11; 0.001 µM", "result": "-1.03 ± 0.38"}, {"measurement": "mass response", "setting": "MV-4-11; 0.01 µM", "result": "2.01 ± 0.69"}, {"measurement": "mass response", "setting": "MV-4-11; 0.1 µM", "result": "15 ± 1.3"}, {"measurement": "mass response", "setting": "MV-4-11; 1 µM", "result": "22.9 ± 0.31"}]}, {"smiles": "CNC(=O)c1ccc(-c2cnc3ncc(Cc4ccc5ncccc5c4)n3n2)cc1F", "note": "[Capmatinib]", "values": [{"measurement": "mass response", "setting": "HT-29; 0.01 µM", "result": "1.15 ± 0.93"}, {"measurement": "mass response", "setting": "HT-29; 0.1 µM", "result": "1.02 ± 2.5"}, {"measurement": "mass response", "setting": "HT-29; 1 µM", "result": "3.42 ± 3"}, {"measurement": "mass response", "setting": "HT-29; 10 µM", "result": "12.2 ± 4.3"}]}, {"smiles": "COc1cc2nccc(Oc3ccc(NC(=O)C4(C(=O)Nc5ccc(F)cc5)CC4)cc3)c2cc1OC", "note": "[Cabozantinib]", "values": [{"measurement": "mass response", "setting": "H2228; 0.01 µM", "result": "0.815 ± 0.96"}, {"measurement": "mass response", "setting": "H2228; 0.1 µM", "result": "1.67 ± 0.69"}, {"measurement": "mass response", "setting": "H2228; 1 µM", "result": "-1.71 ± 0.46"}, {"measurement": "mass response", "setting": "H2228; 10 µM", "result": "15.5 ± 1"}]}, {"smiles": "CCc1c2c(nc3ccc(O)cc13)-c1cc3c(c(=O)n1C2)COC(=O)[C@]3(O)CC", "note": "[SN-38]", "values": [{"measurement": "mass response", "setting": "HT-29; 0.01 µM", "result": "15.5 ± 0.51"}, {"measurement": "mass response", "setting": "HT-29; 0.1 µM", "result": "11.1 ± 2.3"}, {"measurement": "mass response", "setting": "HT-29; 1 µM", "result": "10.6 ± 0.61"}, {"measurement": "mass response", "setting": "HT-29; 10 µM", "result": "18 ± 3"}]}, {"smiles": "CC1(C)CCC(CN2CCN(c3ccc(C(=O)NS(=O)(=O)c4ccc(NCC5CCOCC5)c([N+](=O)[O-])c4)c(Oc4cnc5[nH]ccc5c4)c3)CC2)=C(c2ccc(Cl)cc2)C1", "note": "[Venetoclax]", "values": [{"measurement": "mass response", "setting": "KMS-12-PE; 0.005 µM", "result": "0.784 ± 4.6"}, {"measurement": "mass response", "setting": "KMS-12-PE; 0.05 µM", "result": "22.2 ± 0.87"}, {"measurement": "mass response", "setting": "KMS-12-PE; 0.5 µM", "result": "35.5 ± 0.37"}, {"measurement": "mass response", "setting": "KMS-12-PE; 5 µM", "result": "39.9 ± 4.1"}]}, {"smiles": "CC(C)(C)c1nc(-c2cccc(NS(=O)(=O)c3c(F)cccc3F)c2F)c(-c2ccnc(N)n2)s1", "note": "[Dabrafenib]", "values": [{"measurement": "mass response", "setting": "HT-29; 0.01 µM", "result": "10.7 ± 9.3"}, {"measurement": "mass response", "setting": "HT-29; 0.1 µM", "result": "19.1 ± 5.2"}, {"measurement": "mass response", "setting": "HT-29; 1 µM", "result": "24.3 ± 3.3"}, {"measurement": "mass response", "setting": "HT-29; 10 µM", "result": "16.9 ± 6.3"}]}, {"smiles": "COC(=O)N[C@@H](C)CNc1nccc(-c2cn(C(C)C)nc2-c2cc(Cl)cc(NS(C)(=O)=O)c2F)n1", "note": "[Encorafenib]", "values": [{"measurement": "mass response", "setting": "H1666; 0.01 µM", "result": "1.22 ± 0.73"}, {"measurement": "mass response", "setting": "H1666; 0.1 µM", "result": "-0.00481 ± 0.44"}, {"measurement": "mass response", "setting": "H1666; 1 µM", "result": "11.9 ± 4.1"}, {"measurement": "mass response", "setting": "H1666; 10 µM", "result": "20.6 ± 3.6"}]}, {"smiles": "O=C(O)C(=O)O.[NH-][C@@H]1CCCC[C@H]1[NH-].[Pt+2]", "note": "[Oxaliplatin]", "values": [{"measurement": "mass response", "setting": "PA-TU-8902; 0.5 µM", "result": "5.04 ± 2.9"}, {"measurement": "mass response", "setting": "PA-TU-8902; 5 µM", "result": "1.26 ± 5"}, {"measurement": "mass response", "setting": "PA-TU-8902; 25 µM", "result": "27.3 ± 9.2"}, {"measurement": "mass response", "setting": "PA-TU-8902; 50 µM", "result": "45.7 ± 3.4"}]}, {"smiles": "Cc1cc(Nc2ncc(Cl)c(Nc3ccccc3S(=O)(=O)C(C)C)n2)c(OC(C)C)cc1C1CCNCC1", "note": "[Ceritinib]", "values": [{"measurement": "mass response", "setting": "H2228; 0.01 µM", "result": "2.19 ± 0.97"}, {"measurement": "mass response", "setting": "H2228; 0.1 µM", "result": "25.7 ± 7.5"}, {"measurement": "mass response", "setting": "H2228; 1 µM", "result": "27.4 ± 6.2"}, {"measurement": "mass response", "setting": "H2228; 10 µM", "result": "61 ± 1"}]}, {"smiles": "Nc1ccn([C@@H]2O[C@H](CO)[C@@H](O)C2(F)F)c(=O)n1", "note": "[Gemcitabine]", "values": [{"measurement": "mass response", "setting": "PA-TU-8902; 0.002 µM", "result": "11.2 ± 4.4"}, {"measurement": "mass response", "setting": "PA-TU-8902; 0.02 µM", "result": "7.94 ± 0.91"}, {"measurement": "mass response", "setting": "PA-TU-8902; 0.2 µM", "result": "5.91 ± 0.96"}, {"measurement": "mass response", "setting": "PA-TU-8902; 2 µM", "result": "15.9 ± 3"}]}, {"smiles": "CCN1CCN(Cc2ccc(Nc3ncc(F)c(-c4cc(F)c5nc(C)n(C(C)C)c5c4)n3)nc2)CC1", "note": "[Abemaciclib]", "values": [{"measurement": "mass response", "setting": "H929; 0.05 µM", "result": "13.7 ± 3.8"}, {"measurement": "mass response", "setting": "H929; 0.5 µM", "result": "10.7 ± 3.7"}, {"measurement": "mass response", "setting": "H929; 5 µM", "result": "22.1 ± 2.2"}, {"measurement": "mass response", "setting": "H929; 20 µM", "result": "29.6 ± 1.8"}]}, {"smiles": "C[C@@H](Oc1cc(-c2cnn(C3CCNCC3)c2)cnc1N)c1c(Cl)ccc(F)c1Cl", "note": "[Crizotinib]", "values": [{"measurement": "mass response", "setting": "A549; 0.01 µM", "result": "-1.1 ± 0.55"}, {"measurement": "mass response", "setting": "A549; 0.1 µM", "result": "-1.44 ± 0.16"}, {"measurement": "mass response", "setting": "A549; 1 µM", "result": "6.6 ± 1.6"}, {"measurement": "mass response", "setting": "A549; 10 µM", "result": "12.1 ± 0.61"}]}, {"smiles": "O=c1[nH]cc(F)c(=O)[nH]1", "note": "[Fluorouracil]", "values": [{"measurement": "mass response", "setting": "PA-TU-8902; 25 µM", "result": "-2.58 ± 0.15"}, {"measurement": "mass response", "setting": "PA-TU-8902; 50 µM", "result": "1.92 ± 7"}, {"measurement": "mass response", "setting": "PA-TU-8902; 0.0001 M", "result": "8.61 ± 5.8"}, {"measurement": "mass response", "setting": "PA-TU-8902; 0.00025 M", "result": "30.2 ± 2.5"}]}, {"smiles": "CC(=O)Nc1cccc(-n2c(=O)n(C3CC3)c(=O)c3c(Nc4ccc(I)cc4F)n(C)c(=O)c(C)c32)c1", "note": "[Trametinib]", "values": [{"measurement": "mass response", "setting": "HT-29; 0.01 µM", "result": "26.9 ± 6.7"}, {"measurement": "mass response", "setting": "HT-29; 0.1 µM", "result": "27.1 ± 3.4"}, {"measurement": "mass response", "setting": "HT-29; 1 µM", "result": "23.5 ± 0.46"}, {"measurement": "mass response", "setting": "HT-29; 10 µM", "result": "24.4 ± 0.46"}]}, {"smiles": "CN(C)C(=O)c1cc2cnc(Nc3ccc(N4CCNCC4)cn3)nc2n1C1CCCC1", "note": "[Ribociclib]", "values": [{"measurement": "mass response", "setting": "H929; 0.1 µM", "result": "2.31 ± 0.72"}, {"measurement": "mass response", "setting": "H929; 1 µM", "result": "0.00401 ± 0.89"}, {"measurement": "mass response", "setting": "H929; 10 µM", "result": "1.33 ± 1.2"}, {"measurement": "mass response", "setting": "H929; 50 µM", "result": "14.2 ± 3.9"}]}]}
